According to publication PMC5562879, “Reduction of the off-pathway iron-sulphur cluster N1a of Escherichia coli respiratory complex I restrains NAD^+ dissociation” (Scientific Reports, 2017):

Key:
[1] = target: T1, E. coli respiratory complex I (NADH:ubiquinone oxidoreductase) (Escherichia coli, UniProt P31979); test: NADH:ferricyanide oxidoreductase assay, NADH oxidation at […] nm, Lineweaver-Burk secondary plots; assay type: biochemical; details: reaction started by enzyme (oxidised enzyme), ferricyanide 0.25-2 mM, pH 6.0, 30 °C, ping-pong-pong with double substrate inhibition, competitive with ferricyanide at the reduced
T1 construct: gene nuoF; whole complex from the nuo operon, His-tagged NuoF, overproduced in E. coli, DDM-solubilised, purified by anion exchange, Ni-IDA and Source Q; with NADH-quinone oxidoreductase subunit E; NADH-quinone oxidoreductase subunit G; NADH-quinone oxidoreductase subunit C/D; NADH-quinone oxidoreductase subunit B; NADH-quinone oxidoreductase subunit I; NADH-quinone oxidoreductase subunit A; NADH-quinone oxidoreductase subunit H; NADH-quinone oxidoreductase subunit J; NADH-quinone oxidoreductase subunit K; NADH-quinone oxidoreductase subunit L; NADH-quinone oxidoreductase subunit M; NADH-quinone oxidoreductase subunit N
T1 sequence (P0AFD1 whole entry V96P/N142M, form open, one chain of several): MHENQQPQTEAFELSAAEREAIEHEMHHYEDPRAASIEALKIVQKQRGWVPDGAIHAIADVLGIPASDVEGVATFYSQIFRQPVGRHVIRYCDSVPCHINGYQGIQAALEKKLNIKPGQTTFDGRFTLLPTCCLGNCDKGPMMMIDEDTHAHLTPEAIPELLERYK

[2] = target: T2, E. coli respiratory complex I (NADH:ubiquinone oxidoreductase) (Escherichia coli, UniProt P31979); test: as above; assay type: biochemical; details: reaction started by enzyme (oxidised enzyme), ferricyanide 0.25-2 mM, pH 6.0, 30 °C, ping-pong-pong with double substrate inhibition, competitive with ferricyanide at the reduced; remark: listed apart in the source
T2 construct: gene nuoF; whole complex from the nuo operon, His-tagged NuoF, overproduced in E. coli, DDM-solubilised, purified by anion exchange, Ni-IDA and Source Q; with NADH-quinone oxidoreductase subunit E; NADH-quinone oxidoreductase subunit G; NADH-quinone oxidoreductase subunit C/D; NADH-quinone oxidoreductase subunit B; NADH-quinone oxidoreductase subunit I; NADH-quinone oxidoreductase subunit A; NADH-quinone oxidoreductase subunit H; NADH-quinone oxidoreductase subunit J; NADH-quinone oxidoreductase subunit K; NADH-quinone oxidoreductase subunit L; NADH-quinone oxidoreductase subunit M; NADH-quinone oxidoreductase subunit N
T2 sequence (P31979 1-445): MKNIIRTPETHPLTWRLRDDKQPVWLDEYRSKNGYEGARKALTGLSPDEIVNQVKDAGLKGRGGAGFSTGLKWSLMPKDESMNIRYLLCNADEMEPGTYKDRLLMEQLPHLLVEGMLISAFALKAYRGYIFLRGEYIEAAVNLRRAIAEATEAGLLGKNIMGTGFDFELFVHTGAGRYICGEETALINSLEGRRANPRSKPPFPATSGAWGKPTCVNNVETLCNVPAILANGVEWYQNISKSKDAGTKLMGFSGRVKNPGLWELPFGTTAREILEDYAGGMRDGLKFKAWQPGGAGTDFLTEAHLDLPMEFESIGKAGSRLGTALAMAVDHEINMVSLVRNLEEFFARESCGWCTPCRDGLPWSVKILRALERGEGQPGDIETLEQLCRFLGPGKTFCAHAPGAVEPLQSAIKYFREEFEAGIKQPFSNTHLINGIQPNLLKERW
T2 sequence (P0AFD1 1-166 partner): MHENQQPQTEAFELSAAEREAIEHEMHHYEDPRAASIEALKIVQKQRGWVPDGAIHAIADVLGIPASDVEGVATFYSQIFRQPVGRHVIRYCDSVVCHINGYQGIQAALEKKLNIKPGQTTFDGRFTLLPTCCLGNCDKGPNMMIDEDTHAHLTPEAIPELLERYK
T2 sequence (P33602 2-908 partner): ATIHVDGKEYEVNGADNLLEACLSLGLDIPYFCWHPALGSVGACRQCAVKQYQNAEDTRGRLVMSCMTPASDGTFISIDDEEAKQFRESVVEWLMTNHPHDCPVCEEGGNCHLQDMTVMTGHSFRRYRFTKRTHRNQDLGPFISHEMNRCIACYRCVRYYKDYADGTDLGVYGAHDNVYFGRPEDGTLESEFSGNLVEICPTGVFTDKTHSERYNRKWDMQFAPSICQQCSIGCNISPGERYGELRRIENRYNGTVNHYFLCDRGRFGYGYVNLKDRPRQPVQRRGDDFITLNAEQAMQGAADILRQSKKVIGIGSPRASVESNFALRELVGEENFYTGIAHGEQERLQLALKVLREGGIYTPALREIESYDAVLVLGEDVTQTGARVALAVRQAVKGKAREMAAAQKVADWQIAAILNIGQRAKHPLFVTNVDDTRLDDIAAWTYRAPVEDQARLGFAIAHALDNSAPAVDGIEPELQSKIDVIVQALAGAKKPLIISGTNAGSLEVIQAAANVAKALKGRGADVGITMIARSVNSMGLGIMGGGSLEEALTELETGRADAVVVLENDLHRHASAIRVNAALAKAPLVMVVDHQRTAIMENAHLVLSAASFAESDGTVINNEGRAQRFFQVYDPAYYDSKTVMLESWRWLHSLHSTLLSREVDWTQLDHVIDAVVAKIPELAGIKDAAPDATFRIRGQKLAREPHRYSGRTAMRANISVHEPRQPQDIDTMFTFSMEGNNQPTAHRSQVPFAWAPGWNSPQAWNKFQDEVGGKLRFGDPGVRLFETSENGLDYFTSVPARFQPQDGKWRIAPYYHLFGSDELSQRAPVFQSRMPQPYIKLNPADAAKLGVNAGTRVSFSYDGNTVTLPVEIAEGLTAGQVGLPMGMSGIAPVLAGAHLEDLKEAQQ

[3] = target: T1, E. coli respiratory complex I (NADH:ubiquinone oxidoreductase); test: as above; assay type: biochemical; details: reaction started by enzyme (oxidised enzyme); ferricyanide 0.25-2 mM; pH 6.0, 30 °C; ping-pong-pong with double substrate inhibition; read-out: Km, app. ^NADH
[4] = target: T1, E. coli respiratory complex I (NADH:ubiquinone oxidoreductase); test: as above; assay type: biochemical; details: reaction started by enzyme (oxidised enzyme); pH 6.0, 30 °C; off-rate derived from steady-state kinetics, not a Kd
[5] = target: T2, E. coli respiratory complex I (NADH:ubiquinone oxidoreductase); test: as above; assay type: biochemical; details: reaction started by enzyme (oxidised enzyme); pH 6.0, 30 °C; off-rate derived from steady-state kinetics, not a Kd; remark: listed apart in the source
[6] = target: T3, T. thermophilus complex I (Thermus thermophilus, UniProt Q56222); test: d-NADH:ferricyanide oxidoreductase activity of cytoplasmic membranes, […] nm; assay type: biochemical; details: ferricyanide as acceptor; 50 mM Bis-Tris, pH 7.3 (Figure 1 legend), 60 °C
T3 construct: gene nqo1; native complex in isolated T. thermophilus cytoplasmic membranes; with NADH-quinone oxidoreductase subunit 2; NADH-quinone oxidoreductase subunit 3; NADH-quinone oxidoreductase subunit 4; NADH-quinone oxidoreductase subunit 5; NADH-quinone oxidoreductase subunit 6; NADH-quinone oxidoreductase subunit 7; NADH-quinone oxidoreductase subunit 8; NADH-quinone oxidoreductase subunit 9; NADH-quinone oxidoreductase subunit 10; NADH-quinone oxidoreductase subunit 11; NADH-quinone oxidoreductase subunit 12; NADH-quinone oxidoreductase subunit 13; NADH-quinone oxidoreductase subunit 14; NADH-quinone oxidoreductase subunit 15; NADH-quinone oxidoreductase subunit 16
T3 sequence (Q56222 1-438): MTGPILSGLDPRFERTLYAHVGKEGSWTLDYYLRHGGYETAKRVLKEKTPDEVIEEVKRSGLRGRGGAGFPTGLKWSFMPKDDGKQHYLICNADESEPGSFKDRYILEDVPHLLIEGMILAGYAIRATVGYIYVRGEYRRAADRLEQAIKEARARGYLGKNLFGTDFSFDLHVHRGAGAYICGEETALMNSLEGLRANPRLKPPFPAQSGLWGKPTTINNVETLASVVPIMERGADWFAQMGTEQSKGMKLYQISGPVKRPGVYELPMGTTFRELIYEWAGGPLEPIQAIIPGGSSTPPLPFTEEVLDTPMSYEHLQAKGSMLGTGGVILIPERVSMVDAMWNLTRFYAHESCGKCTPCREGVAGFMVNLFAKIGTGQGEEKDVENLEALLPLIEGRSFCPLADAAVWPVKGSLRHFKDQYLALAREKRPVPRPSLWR
T3 sequence (Q56221 2-181 partner): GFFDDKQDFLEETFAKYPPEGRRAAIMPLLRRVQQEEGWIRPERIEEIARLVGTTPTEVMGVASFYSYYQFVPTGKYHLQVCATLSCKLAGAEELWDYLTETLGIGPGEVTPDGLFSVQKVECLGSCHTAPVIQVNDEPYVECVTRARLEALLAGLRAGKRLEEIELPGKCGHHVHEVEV
T3 sequence (Q56223 1-783 partner): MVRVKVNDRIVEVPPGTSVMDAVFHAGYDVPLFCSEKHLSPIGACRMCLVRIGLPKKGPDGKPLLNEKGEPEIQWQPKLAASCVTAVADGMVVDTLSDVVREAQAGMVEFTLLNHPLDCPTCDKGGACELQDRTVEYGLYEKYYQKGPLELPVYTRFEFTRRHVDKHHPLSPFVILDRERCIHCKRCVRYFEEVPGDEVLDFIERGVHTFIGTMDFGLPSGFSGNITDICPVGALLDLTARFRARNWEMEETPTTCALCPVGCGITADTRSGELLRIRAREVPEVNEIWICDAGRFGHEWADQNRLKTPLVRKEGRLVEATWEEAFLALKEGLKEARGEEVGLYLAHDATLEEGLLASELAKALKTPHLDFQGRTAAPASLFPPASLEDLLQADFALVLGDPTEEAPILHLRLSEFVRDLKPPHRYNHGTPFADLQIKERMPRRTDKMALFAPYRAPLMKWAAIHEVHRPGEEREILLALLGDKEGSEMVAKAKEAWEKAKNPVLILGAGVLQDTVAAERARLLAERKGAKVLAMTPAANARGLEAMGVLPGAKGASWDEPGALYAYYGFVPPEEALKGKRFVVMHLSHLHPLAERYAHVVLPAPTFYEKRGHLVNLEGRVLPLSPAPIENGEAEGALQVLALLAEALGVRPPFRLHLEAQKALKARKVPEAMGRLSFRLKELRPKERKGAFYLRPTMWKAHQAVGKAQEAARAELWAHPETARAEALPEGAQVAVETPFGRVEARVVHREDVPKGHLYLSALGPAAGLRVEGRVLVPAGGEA

purified protein = substrate: NC(=O)C1=CN([C@@H]2O[C@H](COP(=O)(O)OP(=O)(O)OC[C@H]3O[C@@H](n4cnc5c(N)ncnc54)[C@H](O)[C@@H]3O)[C@@H](O)[C@H]2O)C=CC1; test: purified protein; assay type: biochemical, Escherichia coli; details: reaction started by enzyme (oxidised enzyme), ferricyanide 0.25-2 mM, pH 6.0, 30 °C, ping-pong-pong with double substrate inhibition

## NC(=O)C1=CN([C@@H]2O[C@H](COP(=O)(O)OP(=O)(O)OC[C@H]3O[C@@H](n4cnc5c(N)ncnc54)[C@H](O)[C@@H]3O)[C@@H](O)[C@H]2O)C=CC1 [NADH]
[1]
  Ki, app. ^NADH: 22 µM
[2]
  Ki, app. ^NADH: 22 µM
[3]
  Km: 11 µM

## NC(=O)c1ccc[n+]([C@@H]2O[C@H](COP(=O)(O)OP(=O)(O)OC[C@H]3O[C@@H](n4cnc5c(N)ncnc54)[C@H](O)[C@@H]3O)[C@@H](O)[C@H]2O)c1 [NAD^+]
[4]
  Rate constant: NAD^+ dissociation (s^-1): 2.4 10^3
[5]
  Rate constant: NAD^+ dissociation (s^-1): 2.3 10^3

## NC(=O)C1=CN([C@@H]2O[C@H](COP(=O)(O)OP(=O)(O)OC[C@H]3O[C@@H](n4cnc5c(=O)[nH]cnc54)[C@H](O)[C@@H]3O)[C@@H](O)[C@H]2O)C=CC1 [d-NADH]
[6]
  d-NADH:ferricyanide oxidoreductase activity of cytoplasmic membranes, 340 nm: T. thermophilus membranes exhibited similar fast reaction rates

B1: E. coli respiratory complex I (NADH:ubiquinone oxidoreductase) (Escherichia coli K-12) (protein)
chain: MKNIIRTPETHPLTWRLRDDKQPVWLDEYRSKNGYEGARKALTGLSPDEIVNQVKDAGLKGRGGAGFSTGLKWSLMPKDESMNIRYLLCNADEMEPGTYKDRLLMEQLPHLLVEGMLISAFALKAYRGYIFLRGEYIEAAVNLRRAIAEATEAGLLGKNIMGTGFDFELFVHTGAGRYICGEETALINSLEGRRANPRSKPPFPATSGAWGKPTCVNNVETLCNVPAILANGVEWYQNISKSKDAGTKLMGFSGRVKNPGLWELPFGTTAREILEDYAGGMRDGLKFKAWQPGGAGTDFLTEAHLDLPMEFESIGKAGSRLGTALAMAVDHEINMVSLVRNLEEFFARESCGWCTPCRDGLPWSVKILRALERGEGQPGDIETLEQLCRFLGPGKTFCAHAPGAVEPLQSAIKYFREEFEAGIKQPFSNTHLINGIQPNLLKERW
notes: whole complex from the nuo operon, His-tagged NuoF, overproduced in E. coli, DDM-solubilised, purified by anion exchange, Ni-IDA and Source Q; with NADH-quinone oxidoreductase subunit E; NADH-quinone oxidoreductase subunit G; NADH-quinone oxidoreductase subunit C/D; NADH-quinone oxidoreductase subunit B; NADH-quinone oxidoreductase subunit I; NADH-quinone oxidoreductase subunit A; NADH-quinone …
Purified protein
  Km: 11 µM
